Measurements published in ChEMBL document CHEMBL5252611, “2- and 3-Fluoro-3-deaza-1',6'-isoneplanocin: Synthesis and antiviral properties (including Ebola and Marburg)” (Bioorg Med Chem Lett, 2023).
pEC50: −log10 of the molar value. Active and inactive are the calls of the source. The calls are words filed in the database; no cut-off is given here.

Assays:
Tacaribe virus [1] = experiment: Antiviral activity against Tacaribe virus TRVL11573 infected in African green monkey Vero cells by neutral red dye based analysis; assay type: functional, organism-based; conditions: Mammarenavirus tacaribeense
[2] = Cytotoxicity against African green monkey Vero cells infected with Tacaribe virus TRVL11573 by visual analysis; assay type: toxicity, cell-based; conditions: chlorocebus sabaeus
[3] = Cytotoxicity against African green monkey Vero 76 cells infected with Rift Valley fever virus MP-12 by neutral red dye based analysis; assay type: toxicity, cell-based; conditions: chlorocebus sabaeus
Pichinde virus [4] = experiment: Antiviral activity against Pichinde virus AN 4763 infected in African green monkey Vero cells by visual analysis; assay type: functional, organism-based; conditions: AN 4763, Vero
[5] = Cytotoxicity against African green monkey Vero cells infected with Tacaribe virus TRVL11573 by neutral red dye based analysis; assay type: toxicity, cell-based; conditions: chlorocebus sabaeus
[6] = Cytotoxicity against African green monkey Vero cells infected in Pichinde virus AN 4763 by visual analysis; assay type: toxicity, cell-based; conditions: chlorocebus sabaeus, Vero cells infected with Pichinde virus AN 4763
[7] = (§1) Selectivity index, ratio of CC50 for cytotoxicity against African green monkey Vero cells infected with Tacaribe virus TRVL11573 by visual analysis to EC50 for antiviral activity against Tacaribe virus TRVL11573 infected in African green monkey Vero cells by visual analysis; assay type: toxicity, cell-based; conditions: read-out: Ratio CC50/EC50
[8] = Selectivity index, ratio of CC50 for cytotoxicity against MDCK cells infected with influenza A virus California/7/2009(H1N1) to EC50 for antiviral activity against influenza A virus California/7/2009(H1N1) infected in MDCK cells; assay type: toxicity, cell-based; conditions: dog; read-out: Ratio CC50/EC50
[9] = Cytotoxicity against MDCK cells infected with influenza A virus California/7/2009(H1N1); assay type: toxicity, cell-based, Canis lupus familiaris; conditions: dog
Rift Valley fever virus [10] = experiment: Antiviral activity against Rift Valley fever virus MP-12 infected in African green monkey Vero 76 cells by neutral red dye based analysis; assay type: functional, organism-based; conditions: MP-12, Vero 76
Influenza A virus = experiment: Antiviral activity against influenza A virus California/7/2009(H1N1) infected in MDCK cells; assay type: functional, organism-based
Tacaribe virus [11] = experiment: Antiviral activity against Tacaribe virus TRVL11573 infected in African green monkey Vero cells by visual analysis; assay type: functional, organism-based; conditions: Mammarenavirus tacaribeense
[12] = as §1, with “neutral red dye based” for “visual”; assay type: toxicity, cell-based; conditions: read-out: Ratio CC50/EC50
[13] = Cytotoxicity against African green monkey Vero 76 cells infected with Rift Valley fever virus MP-12 by visual analysis; assay type: toxicity, cell-based; conditions: chlorocebus sabaeus
Rift Valley fever virus [14] = experiment: Antiviral activity against Rift Valley fever virus MP-12 infected in African green monkey Vero 76 cells by visual analysis; assay type: functional, organism-based; conditions: MP-12, Vero 76
[15] = (§2) Selectivity index, ratio of CC50 for cytotoxicity against African green monkey Vero 76 cells infected with Rift Valley fever virus MP-12 by visual analysis to EC50 for antiviral activity against Rift Valley fever virus MP-12 infected in African green monkey Vero 76 cells by visual analysis; assay type: toxicity, cell-based; conditions: read-out: Ratio CC50/EC50
[16] = as §2, with “neutral red dye based” for “visual”; assay type: toxicity, cell-based; conditions: read-out: Ratio CC50/EC50
Pichinde virus [17] = experiment: Antiviral activity against Pichinde virus AN 4763 infected in African green monkey Vero cells by neutral red dye based analysis; assay type: functional, organism-based; conditions: AN 4763, Vero
[18] = Selectivity index, ratio of CC50 for cytotoxicity against African green monkey Vero cells infected with Pichinde virus AN 4763 by visual analysis to EC50 for antiviral activity against Pichinde virus AN 4763 infected in African green monkey Vero cells by visual analysis; assay type: toxicity, cell-based; conditions: read-out: Ratio CC50/EC50
[19] = Selectivity index, ratio of CC50 for cytotoxicity against African green monkey Vero cells infected with Pichinde virus AN 4763 by neutral red dye based analysis to EC50 for antiviral activity against Pichinde virus AN 4763 infected in African green monkey Vero cells by neutral red dye based analysis; assay type: toxicity, cell-based; conditions: read-out: Ratio CC50/EC50
[20] = Cytotoxicity against African green monkey Vero cells infected in Pichinde virus AN 4763 by neutral red dye based analysis; assay type: toxicity, cell-based; conditions: chlorocebus sabaeus, Vero cells infected with Pichinde virus AN 4763
Hepatitis B virus = experiment: Antiviral activity against HBV ayw1 infected in human HepG2.2.15 cells; assay type: functional, organism-based; conditions: ayw1, HepG2.2.15
[21] = Selectivity index, ratio of CC50 for cytotoxicity against human HepG2.2.15 cells to EC50 for antiviral activity against HBV ayw1 infected in human HepG2.2.15 cells; assay type: toxicity, cell-based; conditions: read-out: Ratio CC50/EC50
[22] = Cytotoxicity against human HepG2.2.15 cells; assay type: toxicity, cell-based, HepG2 2.2.15
Chikungunya virus = experiment: Antiviral activity against Chikungunya virus S27 infected in African green monkey Vero 76 cells; assay type: functional, organism-based
[23] = system: Venezuelan equine encephalitis virus; experiment: Antiviral activity against Venezuelan equine encephalitis virus TC-83 infected in African green monkey Vero 76 cells; assay type: functional, organism-based
Norovirus = experiment: Antiviral activity against Norovirus Genogroup 1 infected in human HG23 cells; assay type: functional, organism-based; conditions: Genogroup 1, HG23
[24] = Selectivity index, ratio of CC50 for cytotoxicity against African green monkey Vero cells infected with Zaire ebolavirus to EC50 for antiviral activity against Zaire ebolavirus infected in African green monkey Vero cells; assay type: toxicity, cell-based; conditions: read-out: Ratio CC50/EC50
[25] = system: Japanese encephalitis virus; experiment: Antiviral activity against Japanese encephalitis virus SA 14 infected in African green monkey Vero 76 cells; assay type: functional, organism-based
Human betaherpesvirus 5 = experiment: Antiviral activity against Human betaherpesvirus 5 AD 169 infected in HFF cells; assay type: functional, organism-based
Marburgvirus = experiment: Antiviral activity against Marburgvirus Angola infected in African green monkey Vero cells; assay type: functional, organism-based; conditions: Orthomarburgvirus
Punta Toro virus = experiment: Antiviral activity against Punta Toro virus Adames infected in African green monkey Vero 76 cells; assay type: functional, organism-based
[26] = Selectivity index, ratio of CC50 for cytotoxicity against African green monkey Vero cells infected with Marburgvirus Angola to EC50 for antiviral activity against Marburgvirus Angola infected in African green monkey Vero cells; assay type: toxicity, cell-based; conditions: read-out: Ratio CC50/EC50
[27] = Selectivity index, ratio of CC50 for cytotoxicity against human HG23 cells infected with Norovirus Genogroup 1 to EC50 for antiviral activity against Norovirus Genogroup 1 infected in human HG23 cells; assay type: toxicity, cell-based; conditions: read-out: Ratio CC50/EC50
West Nile virus = experiment: Antiviral activity against West Nile virus Kern 515 infected in African green monkey Vero 76 cells; assay type: functional, organism-based
dengue virus type 2 = experiment: Antiviral activity against Dengue virus 2 New Guinea infected in human Huh-7 cells; assay type: functional, organism-based
Poliovirus 1 = experiment: Antiviral activity against Human poliovirus 1 Mahoney infected in African green monkey Vero 76 cells; assay type: functional, organism-based
Enterovirus A71 = experiment: Antiviral activity against Human enterovirus 71 Tainan/4643/98 infected in African green monkey Vero 76 cells; assay type: functional, organism-based
Zaire ebolavirus = experiment: Antiviral activity against Zaire ebolavirus infected in African green monkey Vero cells; assay type: functional, organism-based
[28] = Cytotoxicity against African green monkey Vero cells infected with Zaire ebolavirus; assay type: toxicity, cell-based; conditions: chlorocebus sabaeus
Yellow fever virus = experiment: Antiviral activity against Yellow fever virus YFV 17D infected in human Huh-7 cells; assay type: functional, organism-based
[29] = Cytotoxicity against African green monkey Vero cells infected with Marburgvirus Angola; assay type: toxicity, cell-based; conditions: chlorocebus sabaeus
[30] = Cytotoxicity against human HG23 cells infected with Norovirus Genogroup 1; assay type: toxicity, cell-based
Tacaribe virus [31] = experiment: Antiviral activity against Tacaribe virus TRVL11573 infected in African green monkey Vero cells; assay type: functional, organism-based; conditions: Mammarenavirus tacaribeense
Rift Valley fever virus [32] = experiment: Antiviral activity against Rift Valley fever virus MP-12 infected in African green monkey Vero 76 cells; assay type: functional, organism-based
[33] = Selectivity index, ratio of CC50 for cytotoxicity against African green monkey Vero 76 cells infected with Measles virus CC by visual analysis to EC50 for antiviral activity against Measles virus CC infected in African green monkey Vero 76 cells by visual analysis; assay type: toxicity, cell-based; conditions: read-out: Ratio CC50/EC50
Measles morbillivirus [34] = experiment: Antiviral activity against Measles virus CC infected in African green monkey Vero 76 cells by neutral red dye based analysis; assay type: functional, organism-based
[35] = Selectivity index, ratio of CC50 for cytotoxicity against African green monkey Vero 76 cells by neutral red dye based analysis to EC50 for antiviral activity against Measles virus CC infected in African green monkey Vero 76 cells by neutral red dye based analysis; assay type: toxicity, cell-based; conditions: read-out: Ratio CC50/EC50
[36] = Cytotoxicity against African green monkey Vero 76 cells infected with Measles virus CC by visual analysis; assay type: toxicity, cell-based; conditions: chlorocebus sabaeus
[37] = system: Middle East respiratory syndrome-related coronavirus; experiment: Antiviral activity against Middle East respiratory syndrome-related coronavirus EMC infected in African green monkey Vero 76 cells; assay type: functional, organism-based
[38] = Cytotoxicity against African green monkey Vero 76 cells infected with Measles virus CC by neutral red dye based analysis; assay type: toxicity, cell-based; conditions: chlorocebus sabaeus
Measles morbillivirus [39] = experiment: Antiviral activity against Measles virus CC infected in African green monkey Vero 76 cells by visual analysis; assay type: functional, organism-based
Lassa virus = experiment: Antiviral activity against Lassa virus Josiah infected in African green monkey Vero cells; assay type: functional, organism-based; conditions: Mammarenavirus lassaense

Structure (SMILES)	pEC50 (Tacaribe virus [1])	CC50 [2] [µM]	CC50 [3] [µM]	pEC50 (Pichinde virus [4])	CC50 [5] [µM]	CC50 [6] [µM]	selectivity ratio [7]	selectivity ratio [8]	CC50 [9] [µM]	pEC50 (Rift Valley fever virus [10])	pEC50 (Influenza A virus)	pEC50 (Tacaribe virus [11])	selectivity ratio [12]	CC50 [13] [µM]	pEC50 (Rift Valley fever virus [14])	selectivity ratio [15]	selectivity ratio [16]	pEC50 (Hepatitis B virus)	selectivity ratio [21]	CC50 [22] [µM]	further results
NC(=O)c1ncn([C@@H]2O[C@H](CO)[C@@H](O)[C@H]2O)n1 [RIBAVIRIN]	4.51	> 4090	> 4090	4.35	3930	> 4090	> 150	> 670	> 4100	4.28	4.66	4.56	130	> 4090	4.31	> 83	> 77	–	–	–	pEC50 (Pichinde virus [17]): 4.44; selectivity ratio [18]: > 91; selectivity ratio [19]: > 98; CC50 [20]: > 3560 µM
Nc1ccn([C@@H]2CS[C@H](CO)O2)c(=O)n1 [LAMIVUDINE]	–	–	–	–	–	–	–	–	–	–	–	–	–	–	–	–	–	7.70	> 99	> 2	–
Nc1ncc(F)c2c1ncn2C1=C[C@H](CO)[C@@H](O)[C@H]1O	–	–	–	–	–	–	–	> 1000	> 357	–	> 6.44	–	–	–	–	–	–	5.89	> 2760	> 357	Activity (Chikungunya virus): inactive; Activity [23]: Active; pEC50 (Norovirus): 6.19; selectivity ratio [24]: > 538; Activity [25]: Active; Activity (Human betaherpesvirus 5): Active; pEC50 (Marburgvirus): > 7.00; Activity (Punta Toro virus): inactive; selectivity ratio [26]: > 1000; selectivity ratio [27]: > 2760; Activity (West Nile virus): inactive; Activity (dengue virus type 2): inactive; Activity (Poliovirus 1): Active; Activity (Enterovirus A71): Active; pEC50 (Zaire ebolavirus): > 7.00; CC50 [28]: > 100 µM; Activity (Yellow fever virus): inactive; CC50 [29]: > 100 µM; CC50 [30]: > 357 µM
Nc1nc(F)cc2c1ncn2C1=C[C@H](CO)[C@@H](O)[C@H]1O	5.07	75	132	5.48	50	46	7	–	–	4.48	–	4.97	5.8	114	4.66	5.2	4	6.37	113	48.2	Activity (Chikungunya virus): inactive; Activity [23]: inactive; Activity (Tacaribe virus [31]): inactive; Activity (Rift Valley fever virus [32]): inactive; Activity [25]: inactive; Activity (Human betaherpesvirus 5): inactive; selectivity ratio [33]: 320; Activity (Punta Toro virus): inactive; pEC50 (Measles morbillivirus [34]): 6.41; selectivity ratio [35]: 91; Activity (dengue virus type 2): inactive; CC50 [36]: 114 µM; pEC50 (Pichinde virus [17]): 5.59; selectivity ratio [18]: 14; Activity [37]: inactive; CC50 [38]: 36 µM; pEC50 (Measles morbillivirus [39]): 6.44; selectivity ratio [19]: 19; Activity (Lassa virus): inactive; CC50 [20]: 50 µM
